# Measurements: ChEMBL document CHEMBL1128614, “Proctolin and related N-methylated pentapeptides selectively contract locust foregut but not rat ileum” (1995)
# Square brackets hold non-standard residues; d marks the D form. Peptide text beside a SMILES is read from it. NMeT = CN[C@H](C(=O)O)[C@@H](C)O; NMeL = CN[C@@H](CC(C)C)C(=O)O
# Experiments:
# Assay type in all cases: functional
# Schistocerca gregaria [1] = assay: Tested for contraction Schistocerca gregaria gut at concentrations ranging from 10 nM to 5 uM and maximum response concentration reported
# Schistocerca gregaria [2] = assay: Tested for tissue (foreguts isolated from Schistocerca gregaria) contraction response at 80 uM
# Schistocerca gregaria [3] = assay: Tested for tissue (foreguts isolated from Schistocerca gregaria) contraction response at 2 uM
# Schistocerca gregaria [4] = assay: Tested for tissue (foreguts isolated from Schistocerca gregaria) contraction response; No activity
smiles,measurement,setting,value
CC(C)C[C@@H](NC(=O)[C@@H](Cc1ccc(O)cc1)NC(=O)[C@@H](N)CCCN=C(N)N)C(=O)N1CCC[C@@H]1C(=O)N[C@H](C(=O)O)[C@H](C)O,Concentration,Schistocerca gregaria [1],1 µM
CC(C)C[C@@H](C(=O)N1CCC[C@H]1C(=O)N[C@H](C(=O)O)[C@@H](C)O)N(C)C(=O)[C@H](Cc1ccc(O)cc1)NC(=O)[C@@H](N)CCCN=C(N)N (H-RY[NMeL]PT-OH),Max contraction,Schistocerca gregaria [2],52%
CC(C)C[C@H](NC(=O)[C@H](Cc1ccc(O)cc1)NC(=O)[C@@H](N)CCCN=C(N)N)C(=O)N1CCC[C@H]1C(=O)N(C)[C@H](C(=O)O)[C@@H](C)O (H-RYLP[NMeT]-OH),Max contraction,Schistocerca gregaria [3],78%
CC(C)C[C@@H](NC(=O)[C@@H](Cc1ccc(O)cc1)N(C)C(=O)[C@@H](N)CCCN=C(N)N)C(=O)N1CCC[C@@H]1C(=O)N[C@H](C(=O)O)[C@H](C)O,Activity,Schistocerca gregaria [4],No activity
